System: S. aureus D48
Experiment: effect on membrane potential difference, DiSC2(5) fluorescent probe
Type: cell-based, Staphylococcus aureus
Conditions: bacteriocin 1×MIC; Triton X-100 5% solution as positive control; scanning time 15 min
Procedure: S. aureus D48 cells were prepared by the same method as that in Example 3, washed with a 5 mM fluorescent leakage buffer and resuspended to 5 mL to obtain a bacterial suspension. A fluorescent probe DiSC2(5) was set to have an excitation wavelength of 650 nm and an emission wavelength of 670 nm. The scanning interval was set as Ex slit: 5 nm, Em slit: 5 nm, and the scanning time was 15 min. 2 mL of the fluorescent leakage buffer, 20 μL of the bacterial suspension, and 3 μL of 0.1 mM probe DiSC2(5) were added to a fluorescence cuvette, and mixed uniformly for detection. After the fluorescence response value became stable, the L. rhamnosus ZFM216 bacteriocin solution with a final concentration of 1×MIC was quickly added in the experimental group, and the same volume of fluorescence leakage buffer and 5% Triton X-100 solution were added to the control groups respectively.
Note: The preparation method of the fluorescent leakage buffer is: 0.7455 g of potassium chloride and 0.2463 g of a magnesium sulfate heptahydrate solution are accurately weighed, 22.5 mL of a 20% glucose solution and 10 mL of a phosphate buffer solution are measured, the volume is diluted to 100 mL with ultrapure water, the pH is adjusted to 7, and the prepared fluorescent leakage buffer is stored at 4° C. for later use.

## Triton X-100 [TritonX-100]
  fluorescence intensity of S. aureus D48 bacterial suspension (DiSC2(5)): rapidly increased to the highest value

Reference: patent publication US11999769B2, “Method for isolating and purifying bacteriocin against drug-resistant Staphylococcus aureus” (Zhejiang Gongshang University, priority 2022, dated 2024)
